Earlier results in patent US10894036B2, “Use of marizomib for the treatment of central nervous system (CNS) cancers” (Celgene International II Sàrl, priority 2016, dated 2021).
Read-outs that look alike come from different tables or passages of the source.

Tested on: recurrent glioma
Conditions: cited from earlier work; for 6 mo OS / 6 mo PFS / 9 mo OS / 9 mo PFS: BEV monotherapy
[1] = BELOB Trial, BEV monotherapy (Taal et al., 2014)
[2] = BELOB trial BEV monotherapy arm (Taal et al., 2014)
[3] = Heiland (Freiburg, Germany), All Pts
[4] = Heiland (Freiburg, Germany), Methylated
[5] = Heiland (Freiburg, Germany), Unmethylated MGMT promoter
[6] = Taal (BELOB), Unmethylated MGMT promoter
[7] = Wick (EORTC 26101 P2), Methylated
[8] = Wick (EORTC 26101 P2), Unmethylated MGMT promoter

bevacizumab [reference compound]
6 Months PFS, all patients [1]: 16%
6 Months PFS, uMGMT Promoter [1]: 8%
6 mo PFS, All [2]: 16%
6 mo PFS, uMGMT Promoter [2]: 8%
6 mo OS (Field (CABARET), All Pts): 61%
6 mo PFS (Field (CABARET), All Pts): 18%
9 mo OS (Field (CABARET), All Pts): 39%
9 mo PFS (Field (CABARET), All Pts): 6%
6 mo Overall Survival, All Pts (Field (CABARET)): 61%
6 mo Progression Free Survival, All Pts (Field (CABARET)): 18%
9 mo Overall Survival, All Pts (Field (CABARET)): 39%
9 mo Progression Free Survival, All Pts (Field (CABARET)): 6%
12 Mo. Overall Survival, All Pts (Field (CABARET)): 24%
6 mo OS [3]: 18%
9 mo OS [3]: 30%
9 mo PFS [3]: 0%
6 mo OS [4]: 58%
6 mo PFS [4]: 38%
9 mo OS [4]: 40%
9 mo PFS [4]: 22%
6 mo OS [5]: 25%
6 mo PFS [5]: 10%
9 mo PFS [5]: 0%
6 mo Overall Survival, All Pts (Heiland (Freiburg, Germany)): 18%
6 mo Overall Survival, Methylated (Heiland (Freiburg, Germany)): 58%
6 mo Overall Survival, Unmethylated (Heiland (Freiburg, Germany)): 25%
6 mo Progression Free Survival, Methylated (Heiland (Freiburg, Germany)): 38%
6 mo Progression Free Survival, Unmethylated (Heiland (Freiburg, Germany)): 10%
9 mo Overall Survival, All Pts (Heiland (Freiburg, Germany)): 30%
9 mo Overall Survival, Methylated (Heiland (Freiburg, Germany)): 40%
9 mo Progression Free Survival, All Pts (Heiland (Freiburg, Germany)): 0%
9 mo Progression Free Survival, Methylated (Heiland (Freiburg, Germany)): 22%
9 mo Progression Free Survival, Unmethylated (Heiland (Freiburg, Germany)): 0%
12 Mo. Overall Survival, All Pts (Heiland (Freiburg, Germany)): 10%
12 Mo. Overall Survival, Methylated (Heiland (Freiburg, Germany)): 24%
12 Mo. Progression Free Survival, All Pts (Heiland (Freiburg, Germany)): 0%
12 Mo. Progression Free Survival, Methylated (Heiland (Freiburg, Germany)): 10%
12 Mo. Progression Free Survival, Unmethylated (Heiland (Freiburg, Germany)): 0%
6 mo OS (Taal (BELOB), All Pts): 62%
6 mo PFS (Taal (BELOB), All Pts): 16%
9 mo OS (Taal (BELOB), All Pts): 45%
9 mo PFS (Taal (BELOB), All Pts): 8%
6 mo OS (Taal (BELOB), Methylated): 83%
6 mo PFS (Taal (BELOB), Methylated): 33%
9 mo OS (Taal (BELOB), Methylated): 67%
9 mo PFS (Taal (BELOB), Methylated): 22%
6 mo OS [6]: 50%
6 mo PFS [6]: 8%
9 mo PFS [6]: 0%
6 mo Overall Survival, All Pts (Taal (BELOB)): 62%
6 mo Overall Survival, Methylated (Taal (BELOB)): 83%
6 mo Overall Survival, Unmethylated (Taal (BELOB)): 50%
6 mo Progression Free Survival, All Pts (Taal (BELOB)): 16%
6 mo Progression Free Survival, Methylated (Taal (BELOB)): 33%
6 mo Progression Free Survival, Unmethylated (Taal (BELOB)): 8%
9 mo Overall Survival, All Pts (Taal (BELOB)): 45%
9 mo Overall Survival, Methylated (Taal (BELOB)): 67%
9 mo Progression Free Survival, Methylated (Taal (BELOB)): 22%
9 mo Progression Free Survival, Unmethylated (Taal (BELOB)): 0%
12 Mo. Overall Survival, All Pts (Taal (BELOB)): 26%
12 Mo. Overall Survival, Methylated (Taal (BELOB)): 56%
12 Mo. Overall Survival, Unmethylated (Taal (BELOB)): 8%
12 Mo. Progression Free Survival, Unmethylated (Taal (BELOB)): 0%
6 mo PFS (Wick (EORTC 26101 P2), All Pts): 14%
9 mo PFS (Wick (EORTC 26101 P2), All Pts): 9%
6 mo PFS [7]: 25%
9 mo PFS [7]: 9%
6 mo PFS [8]: 10%
9 mo PFS [8]: 10%
6 mo Progression Free Survival, All Pts (Wick (EORTC 26101 P2)): 14%
6 mo Progression Free Survival, Methylated (Wick (EORTC 26101 P2)): 25%
6 mo Progression Free Survival, Unmethylated (Wick (EORTC 26101 P2)): 10%
9 mo Progression Free Survival, All Pts (Wick (EORTC 26101 P2)): 9%
9 mo Progression Free Survival, Methylated (Wick (EORTC 26101 P2)): 9%
9 mo Progression Free Survival, Unmethylated (Wick (EORTC 26101 P2)): 10%
12 Mo. Progression Free Survival, All Pts (Wick (EORTC 26101 P2)): 8%
12 Mo. Progression Free Survival, Methylated (Wick (EORTC 26101 P2)): 9%
12 Mo. Progression Free Survival, Unmethylated (Wick (EORTC 26101 P2)): 10%
6-month progression-free survival (PFS) rate (recurrent G4 MG): ~43%
median overall survival (OS) (recurrent G4 MG): ~9 months
